Inhibition data for 33 molecules are collected here from US11541041B1, “Compounds that interact with the Ras superfamily for the treatment of cancers, inflammatory diseases, Rasopathies, and fibrotic disease” (Shy Therapeutics LLC, priority 2017, dated 2023).

Like-named read-outs stand apart in the source and are kept apart here.

Assay [1] addresses KRas G12D/Q61H double mutant (Homo sapiens (Human), UniProt P01116, G12D/Q61H). Nature of the assay: Ras GTP binding domain inhibition assay. Here is the method: (§1) Buffer-I: • 50 mM Tris, pH 7.5 • 150 mM NaCl (optional) • 1 mM MgCl2 • 1 mM DTT. • KRas G12D mutant protein was expressed as a His-tagged protein. Purified His-KRas G12D protein was diluted in buffer-I to a final concentration of 3-10 μg/ml. • 200 μl of the diluted His-KRas G12D protein was added to a nickel coated 96 well plate and incubated overnight at 4° C. • The next day, wells were washed 3× in 200 μl of Buffer-I. • Then 200 μl of Buffer-I were added to each well in the presence of 1% DMSO. • Tested compounds were added to the protein-coated wells at a concentration of 20 μM, and incubated for 3 hours at room temperature. While performing IC50 measurements a serial dilution of all tested concentrations was prepared.
(§2) Then 22 μl of Cy3-GTP or Cy5-GTP was added to each well. The labeled GTP was incubated for 45 min. at room temperature. • Following GTP incubation, wells were washed 3× in Buffer-I, and 200 μl of Buffer-I were added to each well. • Following washes, the amount of bound labeled-GTP was measured with an Eppendorf AF2200 plate reader.
By substituting KRas G12D mutant protein with KRas G12C mutant, KRas wild type, KRas Q61H mutant, KRas G12D/Q61H double mutant or KRas G12C/Q61H double mutant under the assay conditions described above, KRas G12C mutant KRas wild type, KRas Q61H mutant, KRas G12D/Q61H double mutant and KRas G12C/Q61H double mutant inhibition, respectively, were each determined.

The next assay addresses Rac-1 (Homo sapiens (Human), UniProt P63000). Nature of the assay: Rac and Rho inhibition assay. In kind it is binding. The note with it: read-out: Rac-1 % Inh. As for the experimental part:
as §1, §2
(§3) By substituting KRas G12D mutant protein with either Rac-1 or Rho-A under the assay conditions described in Example 5, Rac-1 and Rho-A inhibition, respectively, were each determined.

The target in another assay is Rho-A (Homo sapiens (Human), UniProt P61586). Description: Rac and Rho inhibition assay. It is filed as binding. The note with it: read-out: Rho-A % Inh. Here is the method: as §1, §2, §3
Setting [2] is: 20 μM, read-out: KRas G12D Q61H % Inh.
The mark [3] stands for this setting: 20 μM compound, read-out: % Inhibition at 20 μM, KRas G12D Q61H.

Sequence of Rho-A (P61586 whole entry): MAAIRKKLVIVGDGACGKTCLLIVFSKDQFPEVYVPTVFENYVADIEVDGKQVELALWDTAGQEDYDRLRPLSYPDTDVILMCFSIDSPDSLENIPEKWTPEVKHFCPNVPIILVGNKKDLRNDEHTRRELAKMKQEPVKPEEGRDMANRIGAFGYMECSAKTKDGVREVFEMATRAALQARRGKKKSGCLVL
Sequence of KRas G12D/Q61H double mutant (P01116-2 other isoform, or with tags, fused parts or gaps G12D/Q61H): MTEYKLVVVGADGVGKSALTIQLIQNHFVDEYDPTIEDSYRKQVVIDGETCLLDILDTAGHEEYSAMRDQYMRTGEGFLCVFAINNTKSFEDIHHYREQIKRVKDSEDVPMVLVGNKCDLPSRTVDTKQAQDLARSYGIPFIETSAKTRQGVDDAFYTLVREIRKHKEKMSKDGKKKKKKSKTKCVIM

`CCOC(=O)c1ccnc(N2CCC(C)CC2c2ccc(CC)o2)c1[N+](=O)[O-]` (stereo not drawn): the inhibition at 20 µM in assay [1] (setting [2]) is 51 to 75%. The same measure, in the same setting: in the case of `O=c1nc(-c2ccccn2)[nH]c2ccsc12` it was 51 to 75%. Turning to `Cc1sc2c(O)nc(-c3ccccn3)nc2c1C(=O)N1CCN(Cc2cccc(O)c2)CC1`, the inhibition at 20 µM on Rac-1 and at Rho-A was 76 to 100% each time. Consider `CCC1=CC2C(=O)NC(c3ccccn3)=NC2S1` (stereo not drawn), for which the inhibition at 20 µM in assay [1] (setting [3]) lay within 25 to 50%. On the same count and under the same terms, as for `CCOc1ccc(C(F)(F)F)cc1NCc1ncc(C)o1`, the figure is 25 to 50%. Take `CCC(C)c1csc2c(OC)nc(-c3ccccn3)nc12` (stereo not drawn): the inhibition at 20 µM at Rac-1 lay within 76 to 100%.

`CCN(Cc1cnc(S(=O)(=O)N(C)C)o1)c1ccccc1`: in assay [1] (setting [3]), the inhibition at 20 µM lay within 25 to 50%. Regarding `Oc1nc(-c2ccccn2)nc2c(C3CC3)csc12`, the inhibition at 20 µM at Rho-A fell in the range of 51 to 75%.

As for `O=C(c1csc2c(O)nc(-c3ccccn3)nc12)N1CCNC(c2cn[nH]c2)C1` (stereo not drawn), the inhibition at 20 µM on Rac-1 was in the range of 76 to 100%. With `COc1cc(-c2csc3c(O)nc(-c4ccccn4)nc23)cnc1C(F)(F)F`, the inhibition at 20 µM at Rho-A fell in the range of 51 to 75%.

As for `Oc1nc(-c2ccccn2)nc2c(-c3cc(C(F)(F)F)ccc3F)csc12`, the inhibition at 20 µM on Rho-A fell in the range of 1 to 25%. Same read-out and setting: as for `Cc1c(C(=O)N2CCN(c3ccccc3)CC2)sc2c(O)nc(-c3ccccn3)nc12`, the figure is 76 to 100%. In the case of `COCc1ccc(-c2csc3c(O)nc(-c4ccccn4)nc23)cc1F`, the inhibition at 20 µM at Rac-1 lay in the range of 76 to 100%.

Turning to `OC[C@H]1O[C@@H](c2csc3c2N=C(c2ccccn2)NC3O)[C@H](O)[C@@H]1O` (stereo partly drawn) [drawing 3871], the inhibition at 20 µM at Rac-1 and on Rho-A was 51 to 75% throughout. For the molecule `Oc1nc(-c2ccccn2)nc2c(-c3cnc4ccccc4c3)csc12`, the inhibition at 20 µM at Rac-1 and on Rho-A was 51 to 75% in each case. As for `Cc1cc2nc(-c3ccccn3)nc(O)c2s1` [drawing 3817], the inhibition at 20 µM at Rac-1 and on Rho-A was 76 to 100% in each case. Regarding `CN(C)Cc1ccc(-c2csc3c(O)nc(-c4ccccn4)nc23)cc1F`, the inhibition at 20 µM at Rac-1 and at Rho-A was 76 to 100% each time. As for `FC(F)(F)c1cccc(N2CCN(c3cc(Cl)nc4ncnn34)CC2)c1`, in assay [1] (setting [3]), the inhibition at 20 µM fell in the range of 25 to 50%. As to `O=[N+]([O-])c1cc(C(F)(F)F)ccc1Sc1nc2c(c(C(F)(F)F)n1)CCCC2`, the inhibition at 20 µM in assay [1] (setting [2]) lay in the range of 51 to 75%.

With `Oc1nc(-c2ccccn2)nc2c(-c3ccc4c(c3)CCCO4)csc12`, the inhibition at 20 µM on Rho-A is 51 to 75%. On to `Oc1nc(-c2ccccn2)nc2c(-c3cncc(C(F)(F)F)c3)csc12`, for which, on Rac-1, the inhibition at 20 µM was 1 to 25%. Turning to `C=CCc1cc(COC)ccc1OCC(=O)NCc1ccc(OC)cc1`, the inhibition at 20 µM in assay [1] (setting [3]) lay within 25 to 50%. Regarding `O=C(c1csc2c(O)nc(-c3ccccn3)nc12)N1CCNC(c2ccc(Cl)cc2)C1` (stereo not drawn), the inhibition at 20 µM at Rac-1 and at Rho-A was 76 to 100% throughout.

Take `C=C(CNc1nc(-c2ccccn2)nc2scc(-c3ccccc3)c12)NC`: the inhibition at 20 µM in assay [1] (setting [3]) fell in the range of 25 to 50%. Take `COC(=O)c1c(C)sc2nc(-c3ccccn3)nc(N)c12`: the results for the inhibition at 20 µM on Rac-1 and on Rho-A were 25 to 50% and 51 to 75%, respectively. Regarding `CC(C)COc1ccc(-c2csc3c(O)nc(-c4ccccn4)nc23)cn1`, the inhibition at 20 µM on Rac-1 lay within 76 to 100%.

For `COCCNc1nc(-c2nccn2C)nc2sc(-c3ccccc3)c(-c3ccccc3)c12` [drawing 3879], the figures for the inhibition at 20 µM at Rac-1 and at Rho-A were 76 to 100% and 51 to 75%, respectively.

As to `Oc1nc(-c2ccccn2)nc2c(-c3ccccc3C(F)F)csc12`, the inhibition at 20 µM on Rac-1 and on Rho-A was 76 to 100% in each case.

On to `CN(C(=O)c1ccc(COc2ccccc2F)o1)c1cccs1`, for which, in assay [1] (setting [3]), the inhibition at 20 µM is 25 to 50%. The same measure, in the same setting: as for `CCOC(=O)c1cnc(N(C2CC2)S(=O)(=O)c2ccc(OC)c(C)c2)s1`, the figure is 1 to 25%.

`O=c1[nH]c(-c2cncc(OCC(F)F)c2)nc2cc(F)c(F)cc12`: the inhibition at 20 µM in assay [1] (setting [3]) was 25 to 50%. Consider `O=C1C2C=CC=CC2OC(O)C1Cc1cc(Cl)c2cccnc2c1O` (stereo not drawn), for which the inhibition at 20 µM in assay [1] (setting [3]) lay within 25 to 50%. In the case of `O=C(c1ccc(S(=O)(=O)N2CCOCC2)cc1)N(Cc1ccccc1)Cc1cccs1`, the inhibition at 20 µM in assay [1] (setting [3]) is 1 to 25%.
